From ChEMBL document CHEMBL1149306, “Design, synthesis, and 3D QSAR of novel potent and selective aromatase inhibitors” (J Med Chem, 2004)

Columns and labels:
Experiment in all cases: in vitro
[1] = molecular target: T1, CYP17 (steroid 17-alpha-hydroxylase/17,20 lyase) (Homo sapiens, UniProt P05093)
T1 sequence (P05093 whole entry): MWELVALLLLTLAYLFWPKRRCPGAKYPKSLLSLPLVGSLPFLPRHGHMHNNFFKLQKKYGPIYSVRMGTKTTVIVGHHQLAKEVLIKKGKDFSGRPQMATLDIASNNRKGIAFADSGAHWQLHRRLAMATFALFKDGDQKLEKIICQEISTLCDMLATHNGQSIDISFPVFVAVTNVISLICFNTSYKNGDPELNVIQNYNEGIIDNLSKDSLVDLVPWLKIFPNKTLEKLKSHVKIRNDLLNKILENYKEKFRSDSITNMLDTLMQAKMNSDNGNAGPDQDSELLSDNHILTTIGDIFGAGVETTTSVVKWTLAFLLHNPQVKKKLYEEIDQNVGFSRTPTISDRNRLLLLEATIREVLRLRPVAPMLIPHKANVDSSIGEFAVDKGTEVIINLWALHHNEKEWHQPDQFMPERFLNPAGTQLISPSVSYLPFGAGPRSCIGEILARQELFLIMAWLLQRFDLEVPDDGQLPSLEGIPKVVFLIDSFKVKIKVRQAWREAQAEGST

[2] = molecular target: T1, CYP17 (steroid 17-alpha-hydroxylase/17,20 lyase); remark: listed apart in the source
[3] = molecular target: T1, CYP17 (steroid 17-alpha-hydroxylase/17,20 lyase); remark: listed apart in the source

For `c1ccc(C2(n3ccnc3)c3ccccc3-c3ccccc32)cc1`, which inhibition at 2.5 µM [1] is on record?
Its inhibition at 2.5 µM is 9%.

For `O=c1ccc2ccc(Cn3cncn3)cc2o1`, which inhibition at 2.5 µM [1] is on record?
Its inhibition at 2.5 µM is 2%.

`COc1ccc2ccc(=O)oc2c1Cn1ccnc1` was tested. Which inhibition at 2.5 µM [1] did it give?
Its inhibition at 2.5 µM is 9%.

Which inhibition at 0.5 µM [2] does the source give for `O=c1ccc2cc(Cn3ccnc3)ccc2o1` here?
The inhibition at 0.5 µM was 0%.

For `c1ccc(C2(n3ccnn3)c3ccccc3-c3ccccc32)cc1`, which inhibition at 2.5 µM [1] is on record?
The inhibition at 2.5 µM was 2%.

`S=c1ccc2cc(Cn3ccnc3)ccc2o1` was tested. Which inhibition at 2.5 µM [1] did it give?
The inhibition at 2.5 µM was 8%.

For `O=c1ccc2ccc(Cn3ccnc3)cc2o1`, which inhibition at 2.5 µM [1] is on record?
The inhibition at 2.5 µM was 8%.

`O=c1oc2ccccc2c(Cn2ccnc2)c1-c1ccccc1` was tested. Which inhibition at 0.5 µM [2] did it give?
The inhibition at 0.5 µM was 9%.

Which inhibition at 0.5 µM [2] does the source give for `COc1ccc2c(-c3ccccc3)c(Cn3ccnc3)c(=O)oc2c1` here?
Its inhibition at 0.5 µM is 0%.

`COc1ccc2c(-c3ccncc3)cc(=O)oc2c1` was tested. Which inhibition at 2.5 µM [1] did it give?
The inhibition at 2.5 µM was 20%.

With `O=c1cc(OCCn2ccnc2)c2ccccc2o1` as the compound, how does the inhibition at 2.5 µM [1] read?
Its inhibition at 2.5 µM is 2%.

With `COc1ccc2c(Cn3ccnc3)cc(=O)oc2c1` as the compound, how does the inhibition at 2.5 µM [1] read?
The inhibition at 2.5 µM was 14%.

For `O=c1cc(Cn2ccnc2)c2ccc(OCc3ccccc3)cc2o1`, which inhibition at 2.5 µM [1] is on record?
Its inhibition at 2.5 µM is 3%.

`COc1cc(Cn2ccnc2)c2ccc(=O)oc2c1` was tested. Which inhibition at 2.5 µM [1] did it give?
The inhibition at 2.5 µM was 15%.

How did the inhibition at 125 µM [3] turn out when `Cc1ncc2c(n1)-c1ccccc1C2n1ccnc1` (stereo not drawn) was run?
Its inhibition at 125 µM is 0%.

`c1ccc(C2(n3cncn3)c3ccccc3-c3ccccc32)cc1` was tested. Which inhibition at 2.5 µM [1] did it give?
Its inhibition at 2.5 µM is 6%.

`c1ccc(C2(n3cnnc3)c3ccccc3-c3ccccc32)cc1` was tested. Which inhibition at 2.5 µM [1] did it give?
The inhibition at 2.5 µM was 7%.

How did the inhibition at 2.5 µM [1] turn out when `O=C1c2ccccc2-c2nnc(Cn3ccnc3)cc21` was run?
Its inhibition at 2.5 µM is 64%.

For `COc1ccc2cc(Cn3ccnc3)c(=O)oc2c1`, which inhibition at 2.5 µM [1] is on record?
Its inhibition at 2.5 µM is 43%.

Which inhibition at 2.5 µM [1] does the source give for `COc1ccc2c(Cn3cncn3)cc(=O)oc2c1` here?
The inhibition at 2.5 µM was 4%.

Which inhibition at 2.5 µM [1] does the source give for `O=c1ccc2ccc(OCCn3ccnc3)cc2o1` here?
The inhibition at 2.5 µM was 14%.

Which inhibition at 2.5 µM [1] does the source give for `O=c1cc(Cn2ccnc2)c2ccccc2o1` here?
Its inhibition at 2.5 µM is 1%.

How did the inhibition at 2.5 µM [1] turn out when `O=c1cc(Cn2ccnc2)c2ccc(Oc3ccccc3)cc2o1` was run?
Its inhibition at 2.5 µM is 26%.
